Assay results published in patent US20050267158A1, “Polymorphic and amorphous forms of 2,5-dimethyl-2H-pyrazole-3-carboxylic acid {2-fluoro-5-[3-((E)-2 pyridin-2-YL-vinyl)-1H-indazol-6-ylamino]-phenyl}-amide” (AGOURON PHARMACEUTICALS, INC., priority 2004, published 2005).
≈ marks a conversion by molar mass, not a printed value. Values belong to the compound of their own block, whether it stands above or below them.

What was measured:
Assay type in all cases: physicochemical
[1] = Light stability under ICH high intensity light conditions
Source text: (§1) The present invention provides several polymorph crystalline forms and an amorphous form of the compound of Formula I. Each crystalline or amorphous form of the compound can be characterized by one or more of the following: X-ray powder diffraction pattern (i.e., X-ray diffraction peaks at various diffraction angles (2θ)), melting point onset (and onset of dehydration for hydrated forms) as illustrated by endotherms of a Differential Scanning Calorimetry (DSC) thermogram, Raman spectral diagram pattern, aqueous solubility, light stability under International Conference on Harmonization (ICH) high intensity light conditions, and physical and chemical storage stability.

[2] = Aqueous solubility; conditions: for solubility: thermodynamic from solid
Source text: as §1

[3] = Physical and chemical storage stability
Source text: as §1

[4] = Hygroscopicity / form conversion under ambient humidity; conditions: for conversion of solid form: ambient humidity
[5] = aqueous medium, pH 2, pH 2, aqueous buffer, pH 2

light stability [1]: light-stable | solubility ([2]; aqueous medium (pH 7.4), pH 7.4, aqueous buffer, pH 7.4): ~0.4 µg/mL (≈ 0.856 µM) | solubility [2, 5]: ~39 µg/mL (≈ 83.4 µM) | time chemically stable ([3]; 80° C. and 40° C./75% RH): at least 14 days
Compound: Cc1cc(C(=O)Nc2cc(Nc3ccc4c(/C=C/c5ccccn5)n[nH]c4c3)ccc2F)n(C)n1 [Form I, 2,5-Dimethyl-2H-pyrazole-3-carboxylic acid {2-fluoro-5-[3-((E)-2-pyridin-2-yl-vinyl)-1H-indazol-6-ylamino]-phenyl}-amide]

light stability [1]: light-stable | solubility ([2]; aqueous medium at pH 2, pH 2, aqueous buffer, pH 2): ~19 µg/mL (≈ 40.6 µM) | solubility ([2]; aqueous medium at pH 7.4, pH 7.4, aqueous buffer, pH 7.4): ~0.7 µg/mL (≈ 1.5 µM)
Compound: Cc1cc(C(=O)Nc2cc(Nc3ccc4c(/C=C/c5ccccn5)n[nH]c4c3)ccc2F)n(C)n1 [Form II, 2,5-Dimethyl-2H-pyrazole-3-carboxylic acid {2-fluoro-5-[3-((E)-2-pyridin-2-yl-vinyl)-1H-indazol-6-ylamino]-phenyl}-amide]

light stability [1]: light-stable | aqueous solubility ([2]; pH 2): about 10 μg/mL | aqueous solubility ([2]; pH 7.4): about 0.6 μg/mL
Compound: Cc1cc(C(=O)Nc2cc(Nc3ccc4c(/C=C/c5ccccn5)n[nH]c4c3)ccc2F)n(C)n1 [Form III, 2,5-Dimethyl-2H-pyrazole-3-carboxylic acid {2-fluoro-5-[3-((E)-2-pyridin-2-yl-vinyl)-1H-indazol-6-ylamino]-phenyl}-amide]

light stability [1]: light-stable | solubility [2, 5]: ~7 µg/mL (≈ 15 µM)
Compound: Cc1cc(C(=O)Nc2cc(Nc3ccc4c(/C=C/c5ccccn5)n[nH]c4c3)ccc2F)n(C)n1 [Form IV, 2,5-Dimethyl-2H-pyrazole-3-carboxylic acid {2-fluoro-5-[3-((E)-2-pyridin-2-yl-vinyl)-1H-indazol-6-ylamino]-phenyl}-amide]

light stability [1]: light-stable
Compound: Cc1cc(C(=O)Nc2cc(Nc3ccc4c(/C=C/c5ccccn5)n[nH]c4c3)ccc2F)n(C)n1 [Form Ia, 2,5-Dimethyl-2H-pyrazole-3-carboxylic acid {2-fluoro-5-[3-((E)-2-pyridin-2-yl-vinyl)-1H-indazol-6-ylamino]-phenyl}-amide]

Compound: Cc1cc(C(=O)Nc2cc(Nc3ccc4c(/C=C/c5ccccn5)n[nH]c4c3)ccc2F)n(C)n1 [Form Ib, 2,5-Dimethyl-2H-pyrazole-3-carboxylic acid {2-fluoro-5-[3-((E)-2-pyridin-2-yl-vinyl)-1H-indazol-6-ylamino]-phenyl}-amide]
physical and chemical stability ([3]; 60° C. and 40° C./75% RH): physically and chemically stable for at least three months

Compound: Cc1cc(C(=O)Nc2cc(Nc3ccc4c(/C=C/c5ccccn5)n[nH]c4c3)ccc2F)n(C)n1 [Form Ibm-2, 2,5-Dimethyl-2H-pyrazole-3-carboxylic acid {2-fluoro-5-[3-((E)-2-pyridin-2-yl-vinyl)-1H-indazol-6-ylamino]-phenyl}-amide]
conversion of solid form [4]: will convert to Form Ib upon complete hydration

light stability [1]: light-stable | solubility ([2]; aqueous medium, pH 2, aqueous buffer, pH 2): ~8 µg/mL (≈ 17.1 µM) | aqueous solubility ([2]; pH 7.4): about 0.2 μg/mL
Compound: Cc1cc(C(=O)Nc2cc(Nc3ccc4c(/C=C/c5ccccn5)n[nH]c4c3)ccc2F)n(C)n1 [Form V, 2,5-Dimethyl-2H-pyrazole-3-carboxylic acid {2-fluoro-5-[3-((E)-2-pyridin-2-yl-vinyl)-1H-indazol-6-ylamino]-phenyl}-amide]

hygroscopicity [4]: very hygroscopic | conversion of solid form [4]: readily converted back to Form Ib
Compound: Cc1cc(C(=O)Nc2cc(Nc3ccc4c(/C=C/c5ccccn5)n[nH]c4c3)ccc2F)n(C)n1 [Form VI, 2,5-Dimethyl-2H-pyrazole-3-carboxylic acid {2-fluoro-5-[3-((E)-2-pyridin-2-yl-vinyl)-1H-indazol-6-ylamino]-phenyl}-amide]
